From ChEMBL document CHEMBL1201862, “PubChem BioAssay data set” (2004) come the findings set out here.

Test [1] relates to HEK293. Nature of the test: membrane integrity loss in HEK cells – cell-based, fluorescence, cytotoxicity control for IDE activator project, dose response (AID 588440).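 Further: cytotoxicity by LDH release measuring loss of membrane integrity.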 The format is functional. To be noted: Homo sapiens.
For the next test, the system named is Streptococcus. Nature of the test: GAS UMAA2166 growth inhibition – luminescence, BacTiterGlo, counter-screen for streptokinase expression inhibitor project, dose response (AID 1915).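 Further: potency for reduction of bacterial viability or growth.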 The format is functional, organism-based. On the technique in general: Counterscreens check selectivity or assay interference.
The target of test [2] is Heat shock protein HSP 90-alpha (Homo sapiens, UniProt P07900). The class given is functional, organism-based.
Test [3] concerns HEK293. Kind of test: optical interference in Abeta FP readout, dose response, artefact control for IDE activator project, biochemical, fluorescence polarization (AID 588442). The class given is functional, cell-based. To be noted: Homo sapiens. Background: Polarisation of emitted light reports the rotation of a fluorescent probe.
The target in test [4] is T1, Insulin-degrading enzyme (Homo sapiens, UniProt P14735).
T1 sequence (P14735 whole entry): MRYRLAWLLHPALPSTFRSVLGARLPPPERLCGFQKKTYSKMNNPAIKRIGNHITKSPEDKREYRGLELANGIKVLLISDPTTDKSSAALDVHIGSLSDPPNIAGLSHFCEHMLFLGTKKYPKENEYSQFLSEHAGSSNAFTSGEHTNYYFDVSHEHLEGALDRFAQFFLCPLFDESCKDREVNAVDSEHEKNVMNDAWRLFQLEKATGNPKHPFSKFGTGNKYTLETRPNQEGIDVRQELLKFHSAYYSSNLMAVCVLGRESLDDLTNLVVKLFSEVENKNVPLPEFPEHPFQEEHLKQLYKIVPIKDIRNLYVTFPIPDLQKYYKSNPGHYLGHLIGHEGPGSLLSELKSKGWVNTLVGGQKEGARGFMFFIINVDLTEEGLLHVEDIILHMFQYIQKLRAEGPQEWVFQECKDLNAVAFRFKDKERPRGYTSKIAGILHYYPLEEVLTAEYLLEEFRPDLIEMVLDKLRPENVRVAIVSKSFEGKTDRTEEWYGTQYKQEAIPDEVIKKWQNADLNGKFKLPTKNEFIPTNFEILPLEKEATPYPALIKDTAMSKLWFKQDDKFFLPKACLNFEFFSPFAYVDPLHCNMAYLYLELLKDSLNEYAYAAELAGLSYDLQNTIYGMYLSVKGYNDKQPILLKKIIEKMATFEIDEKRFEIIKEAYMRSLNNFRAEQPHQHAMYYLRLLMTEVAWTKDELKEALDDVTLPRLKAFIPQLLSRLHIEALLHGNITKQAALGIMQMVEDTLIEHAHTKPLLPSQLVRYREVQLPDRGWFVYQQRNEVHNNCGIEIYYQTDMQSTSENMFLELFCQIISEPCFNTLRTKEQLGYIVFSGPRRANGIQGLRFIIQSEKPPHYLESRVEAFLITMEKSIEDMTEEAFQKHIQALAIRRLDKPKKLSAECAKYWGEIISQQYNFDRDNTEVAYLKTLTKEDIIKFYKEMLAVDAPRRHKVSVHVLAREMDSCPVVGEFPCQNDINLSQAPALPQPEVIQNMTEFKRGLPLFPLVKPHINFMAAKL
Kind of test: cellular IDE activation of Abeta substrate cleavage – fluorescence polarization, HEK cells, dose response (AID 588439). The class given is functional, cell-based.

Test [5] concerns Streptococcus sp. 'group A'. Nature of the test: Streptococcus pyogenes SK(-)GAS viability under kanamycin – luminescence, BacTiterGlo, confirmation, counter-screen for streptokinase expression inhibitor project, dose response (AID 1900). The format is functional, organism-based.
Test [6] has as its target T1, Insulin-degrading enzyme. Nature of the test: recombinant IDE activation, cell-free – biochemical, fluorescence polarization, counter-screen for IDE activator project, dose response (AID 588681).
Another test addresses T2, Streptokinase A (Streptococcus pyogenes serotype M1, UniProt P10520).
T2 sequence (P10520 whole entry): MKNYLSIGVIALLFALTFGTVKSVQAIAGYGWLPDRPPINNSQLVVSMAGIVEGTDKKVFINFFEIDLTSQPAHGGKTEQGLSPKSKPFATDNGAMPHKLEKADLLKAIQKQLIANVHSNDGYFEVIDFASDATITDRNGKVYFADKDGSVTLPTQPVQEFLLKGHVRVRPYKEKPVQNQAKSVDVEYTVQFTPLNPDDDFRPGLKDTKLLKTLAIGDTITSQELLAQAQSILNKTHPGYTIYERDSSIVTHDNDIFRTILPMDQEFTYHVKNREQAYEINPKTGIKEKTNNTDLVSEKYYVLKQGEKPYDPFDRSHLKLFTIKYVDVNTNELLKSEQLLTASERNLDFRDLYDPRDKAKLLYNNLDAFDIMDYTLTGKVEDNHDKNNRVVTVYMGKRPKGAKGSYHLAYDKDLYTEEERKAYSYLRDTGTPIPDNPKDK
Nature of the test: viability-normalized secreted streptokinase activity reduction – plasminogen activation absorbance, OD405, dose response (AID 1914).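 Further: secreted streptokinase activity via plasminogen activation per viability signal from cell pellet.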 The class given is functional, Streptococcus pyogenes M1 GAS.

A short description of test [7]: loss of viability in HepG2 cells – cell-based, CellTiter-Glo, cherry-picked, cytotoxicity control for Shn3 inhibitor project, dose response (AID 624134). The format is functional. For orientation: In ATP-based viability assays light output follows the ATP content of the culture.
A short description of test [8]: reduction of Shn3 3'UTR-driven luciferase in osteoblasts – cell-based, Clone20 osteoblasts, firefly luciferase, cherry-picked, dose response (AID 624132).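 Further: firefly luciferase luminescence from reporter carrying the Shn3 3'UTR in osteoblasts.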 The class given is functional.
Test [9] deals with HEK293. Kind of test: EBV LMP1 TES2 canonical NF-kB signalling blockers – cell-based, HEK293, luciferase, cherry-pick, dose response (AID 588343). The format is functional. To be noted: Homo sapiens.
Test [10] addresses Latent membrane protein 1 (Human herpesvirus 4 (strain B95-8), UniProt P03230). Kind of test: LMP1 TES1 pathway selectivity over dsRED control – imaging, HEK293T, dual-color eGFP/dsRED, cherry-picks, selectivity assay for LMP1 NF-kB inhibitor project, dose response (AID 588398). The format is functional, cell-based.
Test [11] deals with T3, Apoptotic protease-activating factor 1 (Homo sapiens, UniProt O14727).
T3 sequence (O14727 whole entry): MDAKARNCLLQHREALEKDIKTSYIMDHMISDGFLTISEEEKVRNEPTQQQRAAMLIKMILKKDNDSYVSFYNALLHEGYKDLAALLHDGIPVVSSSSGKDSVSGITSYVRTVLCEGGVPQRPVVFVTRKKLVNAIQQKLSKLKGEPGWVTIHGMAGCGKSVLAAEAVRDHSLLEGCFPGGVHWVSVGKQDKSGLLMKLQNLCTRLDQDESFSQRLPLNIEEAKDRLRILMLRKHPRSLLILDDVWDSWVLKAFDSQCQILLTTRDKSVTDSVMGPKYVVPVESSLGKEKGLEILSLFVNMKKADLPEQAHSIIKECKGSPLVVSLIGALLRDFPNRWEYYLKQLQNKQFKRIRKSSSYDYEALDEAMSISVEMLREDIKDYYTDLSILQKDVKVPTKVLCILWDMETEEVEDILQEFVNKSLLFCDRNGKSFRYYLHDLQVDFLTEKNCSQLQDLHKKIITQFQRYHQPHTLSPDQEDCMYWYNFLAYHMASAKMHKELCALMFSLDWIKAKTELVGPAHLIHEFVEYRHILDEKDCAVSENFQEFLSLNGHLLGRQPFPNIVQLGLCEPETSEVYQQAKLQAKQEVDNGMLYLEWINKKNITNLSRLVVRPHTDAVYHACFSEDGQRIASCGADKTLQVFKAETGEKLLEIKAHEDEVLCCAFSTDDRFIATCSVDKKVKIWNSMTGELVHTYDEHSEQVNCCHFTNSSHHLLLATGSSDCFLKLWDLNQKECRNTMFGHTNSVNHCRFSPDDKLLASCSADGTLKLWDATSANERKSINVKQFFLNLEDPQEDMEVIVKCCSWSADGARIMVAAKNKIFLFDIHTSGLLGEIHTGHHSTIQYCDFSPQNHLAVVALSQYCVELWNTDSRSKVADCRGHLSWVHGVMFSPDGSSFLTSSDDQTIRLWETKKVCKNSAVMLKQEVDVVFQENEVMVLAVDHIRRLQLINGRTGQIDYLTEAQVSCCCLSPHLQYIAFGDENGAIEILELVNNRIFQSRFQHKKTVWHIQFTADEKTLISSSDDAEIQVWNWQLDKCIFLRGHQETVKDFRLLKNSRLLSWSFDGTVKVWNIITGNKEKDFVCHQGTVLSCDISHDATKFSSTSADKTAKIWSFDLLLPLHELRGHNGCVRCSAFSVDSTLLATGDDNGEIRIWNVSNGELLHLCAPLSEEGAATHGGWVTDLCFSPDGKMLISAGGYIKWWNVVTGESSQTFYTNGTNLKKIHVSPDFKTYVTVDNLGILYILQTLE
The format is functional.

For another test, the target named is T4, Protein RecA (Mycobacterium tuberculosis, UniProt P9WHJ3).
T4 sequence (P9WHJ3 whole entry): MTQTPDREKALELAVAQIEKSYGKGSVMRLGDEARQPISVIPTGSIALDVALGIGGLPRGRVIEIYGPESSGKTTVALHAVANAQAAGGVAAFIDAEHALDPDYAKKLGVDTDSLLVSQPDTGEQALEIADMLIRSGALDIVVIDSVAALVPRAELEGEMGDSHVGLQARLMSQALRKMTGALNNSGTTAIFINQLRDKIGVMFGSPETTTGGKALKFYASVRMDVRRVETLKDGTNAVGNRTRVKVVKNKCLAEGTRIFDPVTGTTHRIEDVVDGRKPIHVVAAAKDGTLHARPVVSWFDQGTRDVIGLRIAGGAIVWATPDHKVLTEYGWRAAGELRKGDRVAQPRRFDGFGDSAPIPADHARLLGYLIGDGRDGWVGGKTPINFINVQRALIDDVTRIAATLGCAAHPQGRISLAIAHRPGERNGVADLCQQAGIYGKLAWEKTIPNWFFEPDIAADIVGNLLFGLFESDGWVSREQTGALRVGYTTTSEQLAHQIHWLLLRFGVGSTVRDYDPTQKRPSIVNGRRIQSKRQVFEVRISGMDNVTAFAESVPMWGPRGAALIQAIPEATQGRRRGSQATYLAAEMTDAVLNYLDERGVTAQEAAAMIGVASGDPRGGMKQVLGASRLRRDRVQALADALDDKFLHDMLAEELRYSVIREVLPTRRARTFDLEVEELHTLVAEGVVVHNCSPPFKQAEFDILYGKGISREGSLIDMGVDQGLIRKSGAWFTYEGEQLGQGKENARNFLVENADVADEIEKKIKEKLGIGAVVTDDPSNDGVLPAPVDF
Nature of the test: Fluorescence Cell-Free Homogeneous Dose Retest to Identify Inhibitors of RecA-Intein Splicing Activity. [Related pubchem assays (depositor defined):AID2097, AID2223, AID489010, AID492950]. The format is functional.

Test [12] has as its target Mitochondrial peptide methionine sulfoxide reductase (Bos taurus, UniProt P54149). Kind of test: Absorbance-based biochemical high throughput dose response assay for activators of Methionine sulfoxide reductase A (MsrA). The format is functional.
For test [13], the target named is T5, Replicative DNA helicase DnaB (Mycobacterium tuberculosis, UniProt P9WMR3).
T5 sequence (P9WMR3 whole entry): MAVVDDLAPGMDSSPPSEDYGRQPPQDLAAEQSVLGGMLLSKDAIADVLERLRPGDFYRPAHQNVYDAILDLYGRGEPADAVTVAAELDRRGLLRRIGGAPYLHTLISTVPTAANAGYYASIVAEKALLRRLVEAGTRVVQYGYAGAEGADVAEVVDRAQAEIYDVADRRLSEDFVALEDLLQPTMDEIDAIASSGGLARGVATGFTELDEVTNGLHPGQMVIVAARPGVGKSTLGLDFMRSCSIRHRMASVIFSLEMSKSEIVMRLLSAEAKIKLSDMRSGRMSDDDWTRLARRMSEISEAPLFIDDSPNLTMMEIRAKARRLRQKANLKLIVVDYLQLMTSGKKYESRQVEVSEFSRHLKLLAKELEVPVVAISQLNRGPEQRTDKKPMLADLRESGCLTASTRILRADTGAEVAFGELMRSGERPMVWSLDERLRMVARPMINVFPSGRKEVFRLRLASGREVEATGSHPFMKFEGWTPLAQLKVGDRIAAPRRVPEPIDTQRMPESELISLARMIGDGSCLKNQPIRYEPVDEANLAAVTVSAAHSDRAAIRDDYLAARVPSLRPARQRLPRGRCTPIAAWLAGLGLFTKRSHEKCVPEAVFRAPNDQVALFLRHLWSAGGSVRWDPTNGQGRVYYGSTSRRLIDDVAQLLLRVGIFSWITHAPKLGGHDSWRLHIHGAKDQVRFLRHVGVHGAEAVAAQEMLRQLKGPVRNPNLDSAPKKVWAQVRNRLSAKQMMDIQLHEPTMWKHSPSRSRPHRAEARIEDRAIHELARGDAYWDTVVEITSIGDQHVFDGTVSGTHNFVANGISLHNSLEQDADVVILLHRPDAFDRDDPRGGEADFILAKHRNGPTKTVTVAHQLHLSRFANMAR
Nature of the test: DnaB intein splicing inhibitors, dose response, biochemical, cell-free fluorescence (AID 449749). The format is functional.

Active and inactive are the calls of the source.

Sequence of Latent membrane protein 1 (P03230 whole entry): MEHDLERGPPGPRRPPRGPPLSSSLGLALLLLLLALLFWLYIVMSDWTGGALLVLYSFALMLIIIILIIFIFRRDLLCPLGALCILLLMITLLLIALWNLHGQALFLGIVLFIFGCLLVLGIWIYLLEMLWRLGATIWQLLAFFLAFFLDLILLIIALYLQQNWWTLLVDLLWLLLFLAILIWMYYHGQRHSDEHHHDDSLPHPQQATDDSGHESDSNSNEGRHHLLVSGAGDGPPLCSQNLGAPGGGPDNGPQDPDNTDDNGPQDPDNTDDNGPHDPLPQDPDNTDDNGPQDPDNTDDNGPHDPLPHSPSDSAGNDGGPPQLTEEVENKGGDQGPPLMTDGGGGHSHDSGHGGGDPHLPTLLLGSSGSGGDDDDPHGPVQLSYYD
Sequence of Mitochondrial peptide methionine sulfoxide reductase (P54149 whole entry): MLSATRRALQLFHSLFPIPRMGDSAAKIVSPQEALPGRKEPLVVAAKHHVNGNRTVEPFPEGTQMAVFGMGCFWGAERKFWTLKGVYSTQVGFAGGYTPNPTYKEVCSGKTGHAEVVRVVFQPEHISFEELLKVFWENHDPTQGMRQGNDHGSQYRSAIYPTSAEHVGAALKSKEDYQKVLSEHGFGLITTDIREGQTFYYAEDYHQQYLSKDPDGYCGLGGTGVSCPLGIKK

For `Oc1cc(OCc2ccccc2)ccc1-c1[nH]ncc1-c1ccccc1`, the IC50 (commonly the concentration needed to halve the response being measured) in the test on HEK293 [1] was 16.9 µM (inactive). For the same compound, the EC50 (as a rule, the concentration giving half of the maximal effect) in the test on Streptococcus is 10.5 µM (active); with HEK293 [3], > 55.9 µM (inactive); on Insulin-degrading enzyme [4] it was > 54.7 µM (inactive); in test [5], 2.88 µM (active); on Insulin-degrading enzyme [6], > 54.7 µM (inactive); at Streptokinase A, > 150 µM (not active). Moreover, in test [2], the AC50 (usually the midpoint of the concentration-response curve, whichever way the signal moves) was 9.12 µM (active).

For the compound `CN1OC[C@@H]2CN[C@H](c3ccc(-c4cc5ccccc5o4)cc3)C[C@@H]21`, the AC50 in test [7] is > 70 µM (inactive); in test [8] it was < 0.26 µM (active); in the test with HEK293 [9] it was 0.0503 µM (active); in test [10], 51.1 µM (active).

As to `CCC(CN(C)C)Oc1cc(NCc2ccccc2)c2ncn(C(C)C)c2c1` (stereo unspecified), the IC50 in test [11] was 7.98 µM (active).

On to `O=C1c2ccccc2C(=O)c2cc(S(=O)(=O)Nc3ccccc3)ccc21`, for which the EC50 on Protein RecA was 12.1 µM (active); in test [12], > 104 µM (inactive). In test [13], the AC50 is 29.8 µM (active).
